Experimental data: US12600724B2, “Indole alkaloid and preparation method and use thereof” (NANJING UNIVERSITY OF CHINESE MEDICINE, priority 2022, dated 2026)

Assays:
[1] = test system: STZ-induced type-1 diabetes model mice; test: 50% mechanical pain threshold (Von frey), type-1 diabetic peripheral neuropathy mice; type: in vivo, C57BL/6J mice; conditions: type-1 mice, S26 46.8 mg/kg/day intragastric, Mean ± SD, n = 6
Method: Type-1 diabetes mice: male 8-week-old C57BL/6J mice were purchased from Beijing Vital River Laboratory Animal Technology Co., Ltd. One week after adaptive feeding, STZ (150 mg/kg) was injected intraperitoneally, and one week later, tail vein blood collection was carried out for blood sugar detection, and the mice with random blood sugar greater than 16 mmol/L were selected. Six weeks after STZ injection, the mice were divided into a control group (non-diabetic mice), a model group (DPN mice) and a S26 administration group (46.8 mg/kg/day) respectively according to body weight and blood sugar, and administrated intragastrically for four weeks continuously. This experiment was based on a principle that claws of rodents would have a withdrawal reflex under mechanical stimulation. A Von frey tactile measuring set was purchased from Ugo Basile Company, and Von frey filaments could provide 0.008 g to 300 g of stimulating force, wherein a thickness of the filaments determined a magnitude of the stimulating force. Specific experimental method: filaments with proper thicknesses were selected to vertically stimulate a skin, and the stimulating force was adjusted by replacing the filaments, until the filaments were bent. One mouse was tested for 6 times to determine a threshold, and a 50% mechanical pain threshold of the mouse was calculated according to 50% threshold=(10^(Xf+k δ))/10000, which was detected weekly before and after administration respectively.

[2] = test system: STZ-induced type-1 diabetes model mice; test: Latent period of thermal pain, type-1 diabetic peripheral neuropathy mice; type: in vivo, C57BL/6J mice; conditions: type-1 mice, S26 46.8 mg/kg/day intragastric, Mean ± SD, n = 6
Method: (§1) Type-1 diabetes mice: male 8-week-old C57BL/6J mice were purchased from Beijing Vital River Laboratory Animal Technology Co., Ltd. One week after adaptive feeding, STZ (150 mg/kg) was injected intraperitoneally, and one week later, tail vein blood collection was carried out for blood sugar detection, and the mice with random blood sugar greater than 16 mmol/L were selected. Six weeks after STZ injection, the mice were divided into a control group (non-diabetic mice), a model group (DPN mice) and a S26 administration group (46.8 mg/kg/day) respectively according to body weight and blood sugar, and administrated intragastrically for four weeks continuously. A response of an animal to infrared thermal stimulation was detected weekly by an infrared plantar pain threshold detector (37370, purchased from Ugo Basile Company) before and after administration to characterize a thermal pain sensitivity of the animal. A mouse was put into a single cage equipped for the machine in advance to adapt for 20 minutes, and then plantar thermal stimulation was carried out on the mouse. […] The thermal pain sensitivity was evaluated by comparing the thermal stimulation time.

[3] = test system: primary DRG neuron; test: Axon growth of primary DRG neurons (immunofluorescence, Neuro J); type: cell-based, C57BL/6J mice; conditions: 24 hours
Method: Diabetic peripheral neuropathy involved a sensory neuron first, and a main pathological change was axonal atrophy and degeneration, or even disappearance. […] Therefore, the compounds in the examples were added with the primary DRG neuron to incubate for a certain period of time, then the axon growth of the DRG neuron was detected by immunofluorescence, and an axon length was quantified by Neuro J, so as to evaluate the promotion effect of the compound on the axon growth of the peripheral sensory neuron.
Primary antibodies of mice anti-β-tubulin III used for fluorescent staining were purchased from Sigma Company, cell culture reagents were all purchased from Gibco Company, and DRG neuronal cells were taken from C57BL/6J mice. Specific experimental steps were as follows: fresh DRG of the C57 mice was extracted to digest into a single-cell suspension and then inoculated into a culture plate for adherent culture overnight, with vinblastine as a positive drug, the to-be-detected compounds S1 to S87 ([…]) synthesized in the above examples were given to incubate for 24 hours, then an original culture medium was removed, 4% paraformaldehyde was added into each well to fix for 15 minutes after PBS washing, the mixture was permeabilized with 0.3% TritonX-100 for 5 minutes and sealed at room temperature with 4% BSA for 1 hour, a primary antibody (1:1000) was incubated at 4° C. overnight, a goat anti-mouse fluorescent secondary antibody (1:300) was incubated at room temperature in the dark for 1 hour, and a sealed slide was imaged by a fluorescence microscope (Leica). According to the image, a total axon length of a single DRG neuron was tracked by a Neuro J plug-in in Image J software, and a multiple of the total axon length relative to that of the blank control group was calculated.

[4] = test system: type-2 diabetes model db/db mice; test: Latent period of thermal pain, type-2 diabetes db/db mice; type: in vivo, BKS db/db mice; conditions: S26 46.8 mg/kg/day intragastric, Mean ± SD, n = 6
Method: as §1, with “Type-2” for “Type-1”, “18-week-old BKS db/db” for “8-week-old C57BL/6J”, “Jiangsu Gempharmatech Biotechnology” for “Beijing Vital River Laboratory Animal Technology”, “feeding,” for “feeding, STZ (150 mg/kg) was injected intraperitoneally, and one week later, tail vein blood collection was carried out for blood sugar detection, and the mice with random blood sugar greater than 16 mmol/L were selected. Six weeks after STZ injection,”, “(db/m” for “(non-diabetic”, “(db/db” for “(DPN”

[5] = test system: DRG neurons of type-2 diabetes peripheral neuropathy model mice; test: Axon growth of DRG neuron cells taken after administration, type-2 mice; type: in vivo, BKS db/db mice
Method: Type-2 diabetes mice: male 18-week-old BKS db/db mice were purchased from Jiangsu Gempharmatech Biotechnology Co., Ltd. One week after adaptive feeding, the mice were divided into a control group (db/m mice), a model group (db/db mice) and a S26 administration group (46.8 mg/kg/day) respectively according to body weight and blood sugar, and administrated intragastrically for four weeks continuously. After administration, a fresh DRG neuron of a mouse was extracted to digest into a single-cell suspension and then inoculated into a culture plate for adherent culture overnight. A β-tubulin III (Sigma) protein of the DRG neuron cells was labeled by an immunofluorescence staining method. The protein was imaged by a fluorescence microscope (Leica), and a total axon length of a single DRG neuron cell was tracked by a Neuro J plug-in in Image J software.

CC[C@@]12C=C(C(=O)NCC(=O)OCCOCCOCCOCCO)n3c4c(c5ccccc53)CCN(CCC1)[C@H]42 [Compound S26]
50% mechanical pain threshold ([1]; week 0 of administration): 1.51 ± 0.22^ g | 50% mechanical pain threshold ([1]; week 1 of administration): 1.06 ± 0.34 g | 50% mechanical pain threshold ([1]; week 2 of administration): 0.92 ± 0.24 g | 50% mechanical pain threshold ([1]; week 3 of administration): 0.87 ± 0.15 g | 50% mechanical pain threshold ([1]; week 4 of administration): 0.85 ± 0.23 g | Latent period of thermal pain ([2]; week 0 of administration): 11.33 ± 0.67 ^ s | Latent period of thermal pain ([2]; week 1 of administration): 8.19 ± 0.69 s | Latent period of thermal pain ([2]; week 2 of administration): 6.97 ± 0.73 s | Latent period of thermal pain ([2]; week 3 of administration): 6.16 ± 1.33 s | Latent period of thermal pain ([2]; week 4 of administration): 6.38 ± 0.54 s | Promotion of axon growth of the primary DRG neuron compared with the positive drug (in words) ([3]; 10 μm): more outstanding effect | fold induction at 10 µM ([3]; Mus musculus, multiple of total axon length of a single DRG neuron relative to blank control group): 13.7 | Latent period of thermal pain ([4]; week 0 of administration): 15.55 ± 2.29 ^ s | Latent period of thermal pain ([4]; week 1 of administration): 13.50 ± 2.05 ^ s | Latent period of thermal pain ([4]; week 2 of administration): 12.00 ± 2.28 s | Latent period of thermal pain ([4]; week 3 of administration): 8.62 ± 1.51 s | Latent period of thermal pain ([4]; week 4 of administration): 7.65 ± 1.30 s | Total axon length ([5]; Type-2 db/db mice, DRG neurons extracted after four weeks of S26 46.8 mg/kg/day intragastric, Mean (SD in the cell below), n = 6): 6070.18 pixel | Axon growth conditions of DRG neurons (in words, FIG. 1) ([5]; type-2 diabetes peripheral neuropathy model mice): obviously improve
